Consider 1 compound from patent US20240279217A1, “Heterocyclic compounds for the treatment of tuberculosis” (TECNIMEDE - SOCIEDADE TÉCNICO-MEDICINAL, SA, priority 2021, published 2024).

The subject of one series is HepG2 cell line. Nature of the series: In vitro cytotoxicity assay (MTS tetrazolium reduction). In kind it is cell-based. Conditions: HepG2, 48 h. How it is done:
In an embodiment, in vitro cytotoxicity assay was carried out. In vitro cytotoxicity assay was performed in HepG2 cell line using a tetrazolium reduction assay for cell viability evaluation (MTS reduction as described by Cory A. et al (Cancer Commun. 1991, 3 (7), 207-212)). The assay was performed in 96-well plates for 48 h at 37° C. and 5% CO2 in incubation medium (low glucose DMEM with Glutamax, 10% FBS, 1% Pen/Strep and DMSO). Cells were exposed to 8 different compound concentrations in successive dilutions (usually, base 2), plus a positive control (a compound in a concentration known to decrease cell viability above 50%) and a negative control (incubation medium). Six replicate wells were assayed for each condition. Compound stock solutions were prepared in DMSO at 20 mM, whenever possible, filter sterilized, aliquoted and stored at −20° C. The maximum compound concentrations tested depend on its solubility in incubation medium, and on the maximum DMSO percentage allowable without loss of cell viability. At the end of the incubation period, tetrazolium reagent was added (CellTiter 96′ AQueous Solution from Promega); cells were incubated for another 3 hours in order to promote tetrazolium reduction to formazan by viable cells. The amount of soluble formazan produced was evaluated by 490 nm absorbance reading in a spectrophotometer plate reader. […] Whenever possible, IC50 was calculated as the concentration of compound that reduces cell viability by 50%.

Series [1] concerns H37Rv M. tuberculosis (strain ATCC 25618). Nature of the series: Mycobacterium tuberculosis susceptibility assay REMA (resazurin microtiter assay). In kind it is cell-based.
Series [2] can be described thus: Metabolic stability assay in liver microsomes. It counts as in vitro ADME. Conditions: human, pH 7.4, 37° C., 60 minutes. How it is done:
In an embodiment, metabolic stability assay was carried out. Metabolic stability was assessed by incubating test compounds in 96-well plates in 5 aliquots of 40 μL each (one for each time point) in liver microsomal incubation medium. This medium contained MgCl2 (3.3 mM), NADPH-cofactor system (NADPH (3 mM), glucose-6-phosphate (5.3 mM), glucose-6-phosphate dehydrogenase (0.67 units/ml)) and 0.42 mg of liver microsomal protein per ml in phosphate buffer (100 mM, pH 7.4). Control incubations were performed replacing the NADPH-cofactor system by phosphate buffer. Test compounds (1 μM, final solvent concentration 1.6%) were incubated with microsomes at 37° C. and 100 rpm orbital shaking.
Imipramine and Propranolol were incubated in parallel as reference compounds. Each reaction was performed in duplicate. Five time points over a duration 60 minutes were analysed. The reactions were stopped by adding 12 volumes of 90% acetonitrile in water to incubation aliquots, followed by protein sedimentation by centrifugation. Supernatants were analysed using a Shimadzu VP HPLC system with a reverse phase HPLC column, coupled with tandem mass spectrometer API 3000 (PE Sciex). […] The elimination constant (kel), half-life (t1/2) and intrinsic clearance (Clint) were determined in plot of In(AUC) versus time, using linear regression analysis for each test and reference compound.

Series [3] is described as follows: pKa determination by potentiometric titration. It counts as physicochemical. Particulars: acidified MeOH-water (1:4) solution of NaCl, 25° C. The protocol: In an embodiment, pKa determination assay was carried out. The tendency of a compound to donate a proton is measured as its acid ionization constant (dissociation constant), or Ka. A more practical scale of representing acidity is pKa which is the negative logarithm of the Ka (pKa=−log Ka). The pKa determinations of the test compounds and 3 reference compounds were assessed by potentiometric titration, in accordance with the technical protocols for pKa measurement provided by Pion Inc. and Sirius Analytical Inc. Briefly, compounds pKa were determined by pH-metric method based on potentiometric acid-base titration at 25° C. The test and reference compounds were dissolved in acidified MeOH-water (1:4) solution of NaCl (150 mM, pH 2) and slowly titrated with 10 mM NaOH MeOH-water (1:4) solution. The recorded pH of the solution as a function of NaOH volume used during the titration were used to construct the titration curve. Titration of acidified NaCl solution in absence of any compound was used for blank plotting. Buffering capacity was calculated in each point of titration curve as the ratio of the NaOH flow (constant) to the pH rise velocity. The pKa value is determined from resulting plot of buffering capacity versus pH as the maximum of buffering capacity. pH-Metric method allows to measure pKa's in range between 2 and 12. […]

Another series is described as follows: PAMPA assay, GIT model. In kind it is in vitro ADME. Conditions: log Papp; pH 7.4, 50 μM, 4 hours, room temperature. The protocol: In an embodiment, PAMPA assay was carried. All steps of PAMPA assay were carried out according to pION Inc. PAMPA Explorer™ Manual. The main principle of the assay is the compound incubation in the donor chamber with aqueous buffer, which is separated from the acceptor chamber, with another buffer, by a phospholipid or hydrocarbon membrane fixed on a filter support. After the test, concentrations in the corresponding donor and acceptor chambers are measured and permeability is calculated. GIT model was simulated using GIT-0 phospholipid mix. Verapamil and quinidine (high permeability) and ranitidine (low permeability) were used as reference compounds. All compounds were tested in quadruplicates. […] After incubation, aliquots from both chambers were transferred to optic UV-Vis plates and absorbance was recorded in the range of 202-500 nm in 4 nm steps. Compounds with low UV-Vis signal were evaluated by LC-MS/MS (using a Shimadzu VP HPLC system with a reverse phase HPLC column, coupled with tandem mass spectrometer API 3000 (PE Sciex) and TurbolonSpray ion source used in positive ion mode; acquisition and analysis of the data were performed using Analyst 1.5.2 software (PE Sciex)).
The apparent permeability coefficient was calculated using the formula below. […]
The apparent permeability coefficient was calculated for each compound (log Papp).

Values after ≈ are worked out from the molar mass of the structure shown.

`COc1cccc2ccc(N3CCC(c4nc(-c5ccc(OC(F)(F)F)cc5)no4)CC3)nc12` [Compound 3, 5-(1-(8-methoxyquinolin-2-yl)piperidin-4-yl)-3-(4-(trifluoromethoxy)phenyl)-1,2,4-oxadiazole] returned a half-maximal inhibitory concentration (IC50) with HepG2 cell line (Homo sapiens) greater than 100 µM. In the series with HepG2 cell line (Table 2, cytotoxicity, MTS), the IC50 was greater than 100 µM. Besides, the MIC in series [1] (Mycobacterium tuberculosis, 144 h, read-out: REMA MIC) fell in the range of 7.8 to 15.6 µM (≈ 3.67 to 7.34 µg/mL). In series [1] (Table 2, MTB growth REMA, H37Rv, Middlebrook 7H9, 6 days at 37° C.), the “REMA MIC” value was “+++ (7.8-15.6)”. For the same compound, in series [2], the half-life at 1 μM was determined as 3.03 h and the microsomal CLint at 1 μM turned out to be 9.2 µL/min/mg. The compound further came in with a pKa in series [3] of 3.9. Also, the “GIT PAMPA” value in the series “PAMPA assay, GIT model” is −4.8 log[10^−6 cm/s].
